Here are results for five compounds from patent publication WO2009110655A1, “Novel beta substituted morita-baylis-hillman derivatives” (FOOD SCIENCE Co Ltd, priority 2008, dated 2009).

The test system of data set [1] is human esophageal cancer cell line HEC4. As to the kind of experiment: MTT assay, anticancer effect (cytotoxicity) of β-substituted MBH derivatives. It is filed as cell-based. On the technique in general: Formazan colour is commonly taken as a measure of viable cells.
Another data set has as its system Human HeLa cell lines. Particulars: "It is reported"; cited from earlier work.
[2] abbreviates: 2 mg compound in 80 μl DMSO, 1 μl per well, 24 h at 37 °C, undiluted (FIGs. 1 and 2).
Where [3] appears, read: diluted 20-fold, 24 h at 37 °C (FIG. 3).

On to `C=C(C)C(O[Si](CC)(CC)CC)/C(=C\CCCCCCCCCCCCC)C(=O)OC` (stereo not drawn) [SE-I, (E)-methyl-2-(l-triethylsiloxy-2-methylaryl)hexadeca-2-enoate], for which the oncolytic activity entry in data set [1] (setting [2]) was “almost no oncolytic activity”. Regarding `CCCCCCCCCCCCC/C=C(/C(=O)OC)C(O)c1ccccc1` (stereo not drawn) [SE-5, (E)-methyl-2-(hydroxy(phenyl)methyl)hexateca-2-enoate], the “viabilities of the cancer cells” value in data set [1] (setting [3]) is “about 50%”. The “activity (comparison of diluted samples)” value in data set [1] (diluted samples, 20-fold, compared with SE-3 (FIG. 3)) is “a little higher activity than SE-3”. As to `CCCCCCCCCCCC/C=C(\C(=O)OC)C(O)c1ccccc1` (stereo not drawn) [SE-Il, (Z)-methyl-2-(hydroxy(phenyl)methyl)pentadeca-2-enoate], in data set [1] (setting [2]), the oncolytic activity result is “very high oncolytic activities” and the “viabilities of the cancer cells” value is recorded as “less than 20%”. Consider `CCCCCCCCCCCCC/C=C(/C(=O)OC)C(O[Si](CC)(CC)CC)C(C)=O` (stereo not drawn) [SE-2, (E)-methyl-2-(l-triethylsiloxy-2-oxopropyl)hexadeca-2-enoate], for which, in data set [1] (setting [2]), the oncolytic activity entry is “almost no oncolytic activity”. For the compound `CCCCCCCCCCCCC/C=C(/C(=O)OC)C(O)C(C)=O` (stereo not drawn) [SE-3, secokotomolide A], in data set [1] (setting [3]), the “viabilities of the cancer cells” value is recorded as “about 50%”. Moreover, in the data set with Human HeLa cell lines, the DNA damage result is listed as “apotositic DNA damage” and the induction of apoptosis result is “significant induction of apoptosis”.
